How the values were obtained:
Assay in all cases: relative viability (nuclei count vs DMSO), 5 days (fraction); higher = more cells survive
Gemcitabine + Pictilisib = compound: Nc1ccn([C@@H]2O[C@H](CO)[C@@H](O)C2(F)F)c(=O)n1 [Gemcitabine] + CS(=O)(=O)N1CCN(Cc2cc3nc(-c4cccc5[nH]ncc45)nc(N4CCOCC4)c3s2)CC1 [Pictilisib] (partner 1 µM)
How it was run: (§1)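 Nuclei were stained with Hoechst during a one-step fixation (final 0.05% Triton X-100, 1% formaldehyde, 1 ug/ml Hoechst) carried out 5 days after dosing, then counted on 4× images. The cells, lung cancer lines in 1536-well plates, had been dosed by pin tool the day after seeding with one drug alone or a fixed anchor-drug dose plus five library-drug doses (not always all listed) in √10 steps. Relative viability is the nuclei count in treated wells divided by that in vehicle wells, and each value is the median of duplicate plates.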

[1] = compound: Nc1ccn([C@@H]2O[C@H](CO)[C@@H](O)C2(F)F)c(=O)n1 [Gemcitabine] + CC(=O)c1c(C)c2cnc(Nc3ccc(N4CCNCC4)cn3)nc2n(C2CCCC2)c1=O [Palbociclib] (partner 0.5 µM)
How it was run: as §1

Gemcitabine + Luminespib = compound: Nc1ccn([C@@H]2O[C@H](CO)[C@@H](O)C2(F)F)c(=O)n1 [Gemcitabine] + CCNC(=O)c1noc(-c2cc(C(C)C)c(O)cc2O)c1-c1ccc(CN2CCOCC2)cc1 [Luminespib] (partner 0.01 µM)
How it was run: as §1

Gemcitabine + OSI-027 = compound: Nc1ccn([C@@H]2O[C@H](CO)[C@@H](O)C2(F)F)c(=O)n1 [Gemcitabine] + COc1cccc2cc(-c3nc([C@H]4CC[C@H](C(=O)O)CC4)n4ncnc(N)c34)[nH]c12 [OSI-027] (partner 0.5 µM)
How it was run: as §1

| Cell Line | relative viability (Gemcitabine + Pictilisib; first compound 0.001 µM) | relative viability (Gemcitabine + Pictilisib; first compound 0.003162 µM) | relative viability (Gemcitabine + Pictilisib; first compound 0.01 µM) | relative viability (Gemcitabine + Pictilisib; first compound 0.03162 µM) | relative viability (Gemcitabine + Pictilisib; first compound 0.1 µM) | relative viability ([1]; first compound 0.001 µM) | relative viability ([1]; first compound 0.003162 µM) | relative viability ([1]; first compound 0.01 µM) | relative viability ([1]; first compound 0.03162 µM) | relative viability ([1]; first compound 0.1 µM) | relative viability (Gemcitabine + Luminespib; first compound 0.001 µM) | relative viability (Gemcitabine + Luminespib; first compound 0.003162 µM) | relative viability (Gemcitabine + Luminespib; first compound 0.01 µM) | relative viability (Gemcitabine + Luminespib; first compound 0.03162 µM) | relative viability (Gemcitabine + Luminespib; first compound 0.1 µM) | relative viability (Gemcitabine + OSI-027; first compound 0.001 µM) | relative viability (Gemcitabine + OSI-027; first compound 0.003162 µM) | relative viability (Gemcitabine + OSI-027; first compound 0.01 µM) | relative viability (Gemcitabine + OSI-027; first compound 0.03162 µM) | relative viability (Gemcitabine + OSI-027; first compound 0.1 µM) |
| --- | --- | --- | --- | --- | --- | --- | --- | --- | --- | --- | --- | --- | --- | --- | --- | --- | --- | --- | --- | --- |
| NCI-H1395 | 0.544 | 0.666 | 0.413 | 0.351 | 0.347 | 0.614 | 0.627 | 0.445 | 0.352 | 0.347 | 0.739 | 0.607 | 0.391 | 0.361 | 0.343 | 0.705 | 0.493 | 0.391 | 0.313 | 0.303 |
| HCC-827 | 1.11 | 0.845 | 0.89 | 0.591 | 0.389 | 0.497 | 0.304 | 0.309 | 0.197 | 0.164 | 0.777 | 0.365 | 0.386 | 0.259 | 0.16 | 0.802 | 0.477 | 0.444 | 0.159 | 0.159 |
| ChaGo-K-1 | 0.664 | 0.388 | 0.363 | 0.198 | 0.239 | 0.99 | 0.803 | 0.31 | 0.186 | 0.167 | 0.603 | 0.474 | 0.259 | 0.183 | 0.186 | 0.516 | 0.458 | 0.212 | 0.185 | 0.164 |
| NCI-H2228 | 0.375 | 0.417 | 0.294 | 0.236 | 0.123 | 0.734 | 0.229 | 0.142 | 0.135 | 0.106 | 0.131 | 0.0993 | 0.14 | 0.149 | 0.124 | 0.614 | 0.24 | 0.129 | 0.122 | 0.0908 |
| NCI-H2170 | 0.318 | 0.359 | 0.215 | 0.157 | 0.156 | 0.408 | 0.394 | 0.266 | 0.184 | 0.13 | 0.564 | 0.633 | 0.575 | 0.169 | 0.151 | 0.714 | 0.662 | 0.632 | 0.292 | 0.136 |
| EMC-BAC-2 | 0.615 | 0.58 | 0.402 | 0.196 | 0.184 | 0.529 | 0.515 | 0.46 | 0.256 | 0.25 | 1.29 | 1.17 | 1.04 | 0.222 | 0.194 | 0.422 | 0.423 | 0.212 | 0.214 | 0.223 |
| NCI-H23 | 0.446 | 0.328 | 0.143 | 0.146 | 0.104 | 0.383 | 0.245 | 0.158 | 0.156 | 0.139 | 0.214 | 0.212 | 0.192 | 0.175 | 0.217 | 0.544 | 0.272 | 0.127 | 0.151 | 0.108 |
| RERF-LC-KJ | 0.775 | 0.458 | 0.408 | 0.304 | 0.168 | 1.06 | 1.02 | 0.991 | 0.356 | 0.255 | 1.17 | 1.45 | 1.13 | 0.458 | 0.319 | 0.62 | 0.508 | 0.418 | 0.261 | 0.225 |
| NCI-H358 | 0.338 | 0.27 | 0.188 | 0.194 | 0.161 | 0.124 | 0.0834 | 0.0975 | 0.0732 | 0.08 | 0.778 | 0.294 | 0.126 | 0.121 | 0.114 | 0.523 | 0.114 | 0.0702 | 0.0815 | 0.0642 |
| LC-2-ad | 0.517 | 0.726 | 0.242 | 0.129 | 0.105 | 0.509 | 0.555 | 0.424 | 0.496 | 0.317 | 1.15 | 0.885 | 0.832 | 0.258 | 0.219 | 0.817 | 0.578 | 0.279 | 0.195 | 0.188 |
| HCC-15 | 0.763 | 0.804 | 0.762 | 0.323 | 0.0914 | 0.811 | 0.722 | 0.634 | 0.327 | 0.0961 | 0.305 | 0.234 | 0.32 | 0.15 | 0.0821 | 0.773 | 0.624 | 0.578 | 0.142 | 0.0829 |
| NCI-H2405 | 0.432 | 0.255 | 0.272 | 0.2 | 0.122 | 0.527 | 0.483 | 0.422 | 0.203 | 0.188 | 0.73 | 0.746 | 0.587 | 0.207 | 0.216 | 0.641 | 0.314 | 0.32 | 0.211 | 0.196 |
| LXF-289 | 0.761 | 0.758 | 0.592 | 0.275 | 0.11 | 0.606 | 0.604 | 0.428 | 0.127 | 0.14 | 0.627 | 0.706 | 0.479 | 0.106 | 0.112 | 0.93 | 0.77 | 0.236 | 0.0894 | 0.105 |
| CAL-12T | 0.289 | 0.393 | 0.359 | 0.267 | 0.242 | 0.628 | 0.48 | 0.292 | 0.161 | 0.16 | 0.87 | 0.238 | 0.245 | 0.236 | 0.173 | 0.645 | 0.47 | 0.451 | 0.152 | 0.13 |
| COR-L23 | 0.686 | 0.942 | 0.39 | 0.148 | 0.0795 | 0.277 | 0.214 | 0.119 | 0.112 | 0.0964 | 0.742 | 0.704 | 0.311 | 0.143 | 0.0841 | 0.955 | 0.627 | 0.264 | 0.0984 | 0.101 |
| NCI-H1755 | 0.417 | 0.45 | 0.355 | 0.249 | 0.188 | 0.431 | 0.425 | 0.401 | 0.414 | 0.421 | 0.451 | 0.505 | 0.491 | 0.346 | 0.26 | 0.789 | 0.715 | 0.57 | 0.34 | 0.272 |
